Key:
[1] = target: T1, catalytic domain of MMP-13 enzyme (Homo sapiens, UniProt P45452); test: Assay for determining MMP-13 inhibition (fluorescent substrate); type: biochemical; details: read-out: MMP-13 Activity (IC50 MMP-13), Group
T1 construct: catalytic domain of MMP-13 enzyme (produced by Alantos or commercially available from Invitek (Berlin), Cat. # 30100812); purchased Invitek (Berlin) 30100812
Experimental: The typical assay for MMP-13 activity is carried out in assay buffer comprised of 50 mM Tris, pH 7.5, 150 mM NaCl, 5 mM CaCl2 and 0.05% Brij-35. Different concentrations of tested compounds are prepared in assay buffer in 50 μL aliquots. 10 μL of a 50 nM stock solution of catalytic domain of MMP-13 enzyme (produced by Alantos or commercially available from Invitek (Berlin), Cat. # 30100812) is added to the compound solution. The mixture of enzyme and compound in assay buffer is thoroughly mixed and incubated for 10 min at room temperature. Upon the completion of incubation, the assay is started by addition of 40 μl of a 12.5 μM stock solution of MMP-13 fluorescent substrate (Calbiochem, Cat. No. 444235). The time-dependent increase in fluorescence is measured at the 320 nm excitation and 390 nm emission by automatic plate multireader. The IC50 values are calculated from the initial reaction rates.

activated MMP-8 enzyme = target: T2, activated MMP-8 enzyme (Homo sapiens, UniProt P22894); test: Assay for determining MMP-8 inhibition (OmniMMP fluorescent substrate); type: biochemical; details: read-out: MMP-8 Activity (IC50 MMP-8), Group
T2 construct: purchased Calbiochem 444229
Experimental: The typical assay for MMP-8 activity is carried out in assay buffer comprised of 50 mM Tris, pH 7.5, 150 mM NaCl, 5 mM CaCl2 and 0.05% Brij-35. Different concentrations of tested compounds are prepared in assay buffer in 50 μL aliquots. 10 μL of a 50 nM stock solution of activated MMP-8 enzyme (Calbiochem, Cat. No. 444229) is added to the compound solution. The mixture of enzyme and compound in assay buffer is thoroughly mixed and incubated for 10 min at 37° C. Upon the completion of incubation, the assay is started by addition of 40 μL of a 10 μM stock solution of OmniMMP fluorescent substrate (Biomol, Cat. No. P-126). The time-dependent increase in fluorescence is measured at the 320 nm excitation and 390 nm emission by an automatic plate multireader at 37° C. The IC50 values are calculated from the initial reaction rates.

T2 sequence (P22894 101-467): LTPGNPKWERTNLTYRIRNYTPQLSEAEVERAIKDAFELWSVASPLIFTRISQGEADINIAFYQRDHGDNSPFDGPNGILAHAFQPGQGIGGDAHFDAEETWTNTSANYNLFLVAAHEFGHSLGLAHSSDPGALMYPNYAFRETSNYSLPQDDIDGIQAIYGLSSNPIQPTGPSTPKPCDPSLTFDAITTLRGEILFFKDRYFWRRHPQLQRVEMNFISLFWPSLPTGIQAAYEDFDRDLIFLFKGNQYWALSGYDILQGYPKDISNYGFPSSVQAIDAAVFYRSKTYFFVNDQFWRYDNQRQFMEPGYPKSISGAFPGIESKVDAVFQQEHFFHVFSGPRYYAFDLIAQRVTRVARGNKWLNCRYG

Structure (SMILES)	IC50 [1] [nM]	IC50 (activated MMP-8 enzyme) [nM]
Cn1c(C(=O)NCc2ccc3c(c2)NC(=O)CO3)nc2ccccc2c1=O [2/50]	100 to 20000	
CCc1ccc2nc(C(=O)NCc3ccc4c(c3)NC(=O)CO4)[nH]c(=O)c2c1 [2/70]	< 100	< 250
Cc1sc2nc(C(=O)NCc3ccc4c(c3)NC(=O)CO4)[nH]c(=O)c2c1C(=O)O [4/1]	100 to 20000	
Cc1nc2c(=O)[nH]c(C(=O)NCc3ccc4c(c3)NC(=O)CO4)nc2s1 [2/179]	< 100	
O=C1COc2ccc(CNC(=O)c3nc4scc(-c5cccnc5)c4c(=O)[nH]3)cc2N1 [2/115]	< 100	250 to 20000
O=C1COc2ccc(CNC(=O)c3nc4nonc4c(=O)[nH]3)cc2N1 [39/3]	100 to 20000	
O=C1COc2ccc(CNC(=O)c3nc4ccc(C#Cc5ccccc5)cc4c(=O)[nH]3)cc2N1 [Example 8/1]	< 100	
O=C1COc2ccc(CNC(=O)c3nc4snnc4c(=O)[nH]3)cc2N1 [39/6]	100 to 20000	
O=C1COc2ccc(CNC(=O)c3nc4scc(-c5ccc(-c6ccccc6)cc5)c4c(=O)[nH]3)cc2N1 [2/138]	< 100	
CNC(=O)Cc1csc2nc(C(=O)NCc3ccc4c(c3)NC(=O)CO4)[nH]c(=O)c12 [2/157]	< 100	< 250
Cc1c(CO)sc2nc(C(=O)NCc3ccc4c(c3)NCCO4)[nH]c(=O)c12 [Example 20c]	< 100	< 250
O=C1COc2ccc(CNC(=O)c3nc4c(Br)cc(F)cc4c(=O)[nH]3)cc2N1 [39/23]	< 100	
C[C@@H](Nc1cccc2nc(C(=O)NCc3ccc4c(c3)NC(=O)CO4)[nH]c(=O)c12)c1ccccc1 [36/2]	< 100	< 250
NCc1ccc2nc(C(=O)NCc3ccc4c(c3)NC(=O)CO4)[nH]c(=O)c2c1 [Example 15]	< 100	
C[C@H](O)CNc1cccc2nc(C(=O)NCc3ccc4c(c3)NC(=O)CO4)[nH]c(=O)c12 [36/13]		< 250
CCOC(=O)c1c(C)sc2nc(C(=O)NCc3ccc4c(c3)NC(=O)CO4)[nH]c(=O)c12 [2/22]	< 100	250 to 20000
O=C(NCc1ccc2c(c1)OCO2)c1nc2ccccc2c(=O)[nH]1 [Example 2/5]	< 100	250 to 20000
CCOC(=O)Cc1c([N+](=O)[O-])sc2nc(C(=O)NCc3ccc4c(c3)CN(c3c(N)c(=O)c3=O)CC4)[nH]c(=O)c12 [2/164]	100 to 20000	
C=Cc1ccc2nc(C(=O)NCc3ccc4c(c3)NC(=O)CO4)[nH]c(=O)c2c1 [2/69]	< 100	< 250

Structure (SMILES)	IC50 [1] [nM]	IC50 (activated MMP-8 enzyme) [nM]
Nc1ccc2nc(C(=O)NCc3ccc4c(c3)NC(=O)CO4)[nH]c(=O)c2c1 [Example 5]	< 100	< 250
CC(=O)OCc1sc2nc(C(=O)NCc3ccc4c(c3)N(C(C)=O)CCO4)[nH]c(=O)c2c1C [Example 24]	< 100	
O=C1COc2ccc(CNC(=O)c3nc4sccc4c(=O)[nH]3)cc2N1 [Example 1]	< 100	
O=C1COc2ccc(CNC(=O)c3nc4cccc(C(F)(F)F)c4c(=O)[nH]3)cc2N1 [39/1]	< 100	
NC(=O)Cc1csc2nc(C(=O)NCc3ccc4c(c3)NC(=O)CO4)[nH]c(=O)c12 [Example 2/156]		< 250
Cc1nc2c(=O)[nH]c(C(=O)NCc3ccc4c(c3)CN(c3c(N)c(=O)c3=O)CC4)nc2s1 [2/180]	< 100	
NC(=O)c1ccc2c(=O)[nH]c(C(=O)NCc3ccc4c(c3)NC(=O)CO4)nc2c1 [13/1]	100 to 20000	
O=C1COc2cc(CNC(=O)c3nc4ccccc4c(=O)[nH]3)ccc2N1 [2/205]	100 to 20000	
CCOC(=O)c1sc2nc(C(=O)NCc3ccc4c(c3)NCCO4)[nH]c(=O)c2c1C [Example 20b]	100 to 20000	
C[C@@H](Nc1cccc2nc(C(=O)NCc3ccc4c(c3)NC(=O)CO4)[nH]c(=O)c12)C(=O)OC(C)(C)C [36/6]		< 250
NC(=O)[C@@H]1CCCN1c1cccc2nc(C(=O)NCc3ccc4c(c3)NC(=O)CO4)[nH]c(=O)c12 [36/8]	< 100	
CC(=NO)c1sc2nc(C(=O)NCc3ccc4c(c3)NC(=O)CO4)[nH]c(=O)c2c1C [Example 16]	< 100	< 250
O=C1COc2ccc(CNC(=O)c3nc4scc(-c5ccccc5Cl)c4c(=O)[nH]3)cc2N1 [2/101]	< 100	250 to 20000
COc1cc2nc(C(=O)NCc3ccc4c(c3)NC(=O)CO4)[nH]c(=O)c2cc1OC [2/65]	100 to 20000	
O=C1COc2ccc(CNC(=O)c3nc4cc(C(F)(F)F)ccc4c(=O)[nH]3)cc2N1 [2/43]	100 to 20000	< 250
O=C1COc2ccc(CNC(=O)c3nc4ccc(-c5nnn[nH]5)cc4c(=O)[nH]3)cc2N1 [Example 11]	< 100	
CC(=O)N1CCOc2ccc(CNC(=O)c3nc4sc(CO)c(C)c4c(=O)[nH]3)cc21 [Example 25]	100 to 20000	
Cc1cccc2nc(C(=O)NCc3ccc(F)c(CNc4c(N)c(=O)c4=O)c3)[nH]c(=O)c12 [2/17]		250 to 20000
Cc1nsc2nc(C(=O)NCc3ccc4c(c3)NC(=O)CO4)[nH]c(=O)c12 [2/136]	100 to 20000	

Structure (SMILES)	IC50 [1] [nM]	IC50 (activated MMP-8 enzyme) [nM]
CCOC(=O)c1sc2nc(C(=O)NCc3ccc4c(c3)NC(=O)CO4)[nH]c(=O)c2c1C [2/28]	< 100	250 to 20000
O=C1COc2ccc(CNC(=O)c3nc4ccc([N+](=O)[O-])cc4c(=O)[nH]3)cc2N1 [Example 2/57]	< 100	250 to 20000
COc1cccc2c(=O)[nH]c(C(=O)NCc3ccc4c(c3)NC(=O)CO4)nc12 [39/21]	100 to 20000	
Cc1c(C(=O)Nc2ccccc2)sc2nc(C(=O)NCc3ccc4c(c3)NC(=O)CO4)[nH]c(=O)c12 [2/62]	< 100	250 to 20000
O=C1COc2ccc(CNC(=O)c3nc4cc([N+](=O)[O-])ccc4c(=O)[nH]3)cc2N1 [39/22]	< 100	< 250
C#Cc1ccc2nc(C(=O)NCc3ccc4c(c3)NC(=O)CO4)[nH]c(=O)c2c1 [Example 8]	< 100	< 250
Cc1sc2nc(C(=O)NCc3ccc4c(c3)NS(=O)(=O)CO4)[nH]c(=O)c2c1C [Example 38]	100 to 20000	
Cn1ncc2c(=O)[nH]c(C(=O)NCc3ccc4c(c3)NC(=O)CO4)nc21 [2/111]	< 100	
C[C@@H](O)CNc1cccc2nc(C(=O)NCc3ccc4c(c3)NC(=O)CO4)[nH]c(=O)c12 [36/12]	< 100	< 250
Cc1noc2nc(C(=O)NCc3ccc4c(c3)NC(=O)CO4)[nH]c(=O)c12 [39/12]	100 to 20000	
Cc1sc2nc(C(=O)NCc3ccc4c(c3)NC(=NO)CO4)[nH]c(=O)c2c1C [2/275]	< 100	< 250
O=C1COc2ccc(CNC(=O)c3nc4ccc(C(=O)O)cc4c(=O)[nH]3)cc2N1 [Example 3]	< 100	
Cc1c(CO)sc2nc(C(=O)NCc3ccc4c(c3)NC(=O)CO4)[nH]c(=O)c12 [Example 20a]	< 100	
Cc1csc(-c2csc3nc(C(=O)NCc4ccc5c(c4)NC(=O)CO5)[nH]c(=O)c23)n1 [2/379]	< 100	
Cc1c(C(=O)O)sc2nc(C(=O)NCc3ccc4c(c3)NC(=O)CO4)[nH]c(=O)c12 [4/2]	100 to 20000	
O=C1COc2ccc(CNC(=O)c3nc4ccc(C(=O)Nc5ccccc5)cc4c(=O)[nH]3)cc2N1 [31/1]	100 to 20000	
Cc1cccc2nc(C(=O)NCc3cccc(CNc4c(N)c(=O)c4=O)c3)[nH]c(=O)c12 [Example 2/15]		250 to 20000
Cc1c(CCC(=O)O)sc2nc(C(=O)NCc3ccc4c(c3)NC(=O)CO4)[nH]c(=O)c12 [4/8]		< 250
Cc1sc2nc(C(=O)NCc3cc(Br)c4c(c3)NC(=O)CO4)[nH]c(=O)c2c1C [2/281]	< 100	
